# Key:
# α4β1/VCAM-1 = biological target: T1, α4β1/VCAM-1 (Homo sapiens, UniProt P05556+P13612); experiment: Static cell adhesion assay, Jurkat cells on VCAM-1 (VLA-4 agonist activity); format: cell-based; settings: EC50 relative to THI0349 (average 11 uM) run on the same plate; Jurkat cells, 50% FBS
# T1 construct: The Jurkat (VCAM-1 assays) and HSB (ICAM-1 assays) cell lines were obtained from American Type Culture Collection; endogenous in cells; host or cells: Jurkat (ATCC)
# Method in brief: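 Calcein-labelled Jurkat cells (2×10^5/well) were added to wells coated with a sub-optimal level of human VCAM-1 (0.5 μg/mL) in PBS, 1 mM MgCl2, 50% FBS with compound in 1% DMSO. After 30 min at 37° C. and washing, adherent-cell fluorescence was read. EC50 was the concentration giving 50% of maximal response.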
# αLβ2/ICAM-1 = biological target: T2, αLβ2/ICAM-1 (Homo sapiens, UniProt P05107+P20701); experiment: Static cell adhesion assay, HSB cells on ICAM-1 (LFA-1; LAD); format: cell-based; settings: RFU of compound / RFU of THI0349, both at the same concentration
# T2 construct: The Jurkat (VCAM-1 assays) and HSB (ICAM-1 assays) cell lines were obtained from American Type Culture Collection; endogenous in cells; host or cells: HSB (ATCC)
# Method in brief: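 HSB cells were labeled with calcein-AM for 30 minutes, washed, resuspended in binding buffer (PBS with 2 mM MgCl2, 5 mM EGTA, 50% FBS) and plated at 2×10^5 cells/well in triplicate onto 96-well plates coated overnight at 4° C with ICAM-1 (5 μg/mL in 50 μL TBS) and blocked with 2% BSA. Compounds were tested in 1% DMSO. After 30 minutes at 37° C and three washes, adherent cells were lysed and fluorescence was read; results are compound RFU divided by THI0349 RFU.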
# T2 sequence (P20701 26-1170): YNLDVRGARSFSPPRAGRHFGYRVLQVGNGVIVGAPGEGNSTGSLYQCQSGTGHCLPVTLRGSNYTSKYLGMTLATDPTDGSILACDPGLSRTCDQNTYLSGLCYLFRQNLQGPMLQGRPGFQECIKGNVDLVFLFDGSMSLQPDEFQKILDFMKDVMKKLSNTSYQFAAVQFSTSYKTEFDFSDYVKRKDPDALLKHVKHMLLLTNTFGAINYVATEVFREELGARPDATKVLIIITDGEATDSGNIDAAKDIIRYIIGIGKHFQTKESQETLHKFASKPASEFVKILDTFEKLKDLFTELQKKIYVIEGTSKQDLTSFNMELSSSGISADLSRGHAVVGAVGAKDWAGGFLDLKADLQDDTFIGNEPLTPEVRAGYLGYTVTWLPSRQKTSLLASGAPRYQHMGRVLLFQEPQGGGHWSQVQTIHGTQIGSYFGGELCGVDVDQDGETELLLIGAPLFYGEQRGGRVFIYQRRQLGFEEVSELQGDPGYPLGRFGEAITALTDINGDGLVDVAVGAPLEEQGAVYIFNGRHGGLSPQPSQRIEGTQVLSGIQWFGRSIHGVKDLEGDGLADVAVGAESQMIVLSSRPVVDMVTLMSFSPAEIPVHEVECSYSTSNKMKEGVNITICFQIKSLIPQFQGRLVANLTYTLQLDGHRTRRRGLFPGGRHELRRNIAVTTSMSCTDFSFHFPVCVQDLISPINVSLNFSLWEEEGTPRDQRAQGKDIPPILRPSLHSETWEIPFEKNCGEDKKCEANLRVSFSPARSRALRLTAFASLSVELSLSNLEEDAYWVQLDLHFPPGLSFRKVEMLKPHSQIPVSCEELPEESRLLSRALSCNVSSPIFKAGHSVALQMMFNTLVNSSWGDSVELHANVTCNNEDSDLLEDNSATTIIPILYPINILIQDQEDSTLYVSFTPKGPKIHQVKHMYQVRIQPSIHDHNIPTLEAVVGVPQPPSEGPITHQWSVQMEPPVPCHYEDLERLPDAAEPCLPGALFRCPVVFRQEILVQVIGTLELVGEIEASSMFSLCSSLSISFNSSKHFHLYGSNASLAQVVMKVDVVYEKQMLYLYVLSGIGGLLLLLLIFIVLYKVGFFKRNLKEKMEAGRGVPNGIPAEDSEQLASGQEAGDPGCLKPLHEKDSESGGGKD
# T2 sequence (P05107 23-769): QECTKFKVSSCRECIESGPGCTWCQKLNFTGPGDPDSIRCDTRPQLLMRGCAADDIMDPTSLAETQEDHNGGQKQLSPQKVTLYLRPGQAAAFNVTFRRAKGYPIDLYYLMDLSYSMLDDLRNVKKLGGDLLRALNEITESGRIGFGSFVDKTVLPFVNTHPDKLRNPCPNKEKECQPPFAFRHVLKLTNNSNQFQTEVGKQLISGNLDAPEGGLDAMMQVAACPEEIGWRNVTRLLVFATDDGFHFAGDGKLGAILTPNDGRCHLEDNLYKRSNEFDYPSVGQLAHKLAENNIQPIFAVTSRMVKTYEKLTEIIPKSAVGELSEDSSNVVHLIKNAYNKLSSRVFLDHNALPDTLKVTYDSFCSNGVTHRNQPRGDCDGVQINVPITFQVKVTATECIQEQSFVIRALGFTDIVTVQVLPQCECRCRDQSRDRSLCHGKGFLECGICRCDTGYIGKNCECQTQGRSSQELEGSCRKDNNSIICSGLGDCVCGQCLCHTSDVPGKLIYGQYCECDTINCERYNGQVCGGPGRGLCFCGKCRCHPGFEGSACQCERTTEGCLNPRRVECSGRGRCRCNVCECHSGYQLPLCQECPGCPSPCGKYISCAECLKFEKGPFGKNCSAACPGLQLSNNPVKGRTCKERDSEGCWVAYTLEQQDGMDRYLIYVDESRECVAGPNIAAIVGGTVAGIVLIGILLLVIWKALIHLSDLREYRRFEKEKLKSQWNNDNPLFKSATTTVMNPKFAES
# T1 sequence (P13612 34-1032): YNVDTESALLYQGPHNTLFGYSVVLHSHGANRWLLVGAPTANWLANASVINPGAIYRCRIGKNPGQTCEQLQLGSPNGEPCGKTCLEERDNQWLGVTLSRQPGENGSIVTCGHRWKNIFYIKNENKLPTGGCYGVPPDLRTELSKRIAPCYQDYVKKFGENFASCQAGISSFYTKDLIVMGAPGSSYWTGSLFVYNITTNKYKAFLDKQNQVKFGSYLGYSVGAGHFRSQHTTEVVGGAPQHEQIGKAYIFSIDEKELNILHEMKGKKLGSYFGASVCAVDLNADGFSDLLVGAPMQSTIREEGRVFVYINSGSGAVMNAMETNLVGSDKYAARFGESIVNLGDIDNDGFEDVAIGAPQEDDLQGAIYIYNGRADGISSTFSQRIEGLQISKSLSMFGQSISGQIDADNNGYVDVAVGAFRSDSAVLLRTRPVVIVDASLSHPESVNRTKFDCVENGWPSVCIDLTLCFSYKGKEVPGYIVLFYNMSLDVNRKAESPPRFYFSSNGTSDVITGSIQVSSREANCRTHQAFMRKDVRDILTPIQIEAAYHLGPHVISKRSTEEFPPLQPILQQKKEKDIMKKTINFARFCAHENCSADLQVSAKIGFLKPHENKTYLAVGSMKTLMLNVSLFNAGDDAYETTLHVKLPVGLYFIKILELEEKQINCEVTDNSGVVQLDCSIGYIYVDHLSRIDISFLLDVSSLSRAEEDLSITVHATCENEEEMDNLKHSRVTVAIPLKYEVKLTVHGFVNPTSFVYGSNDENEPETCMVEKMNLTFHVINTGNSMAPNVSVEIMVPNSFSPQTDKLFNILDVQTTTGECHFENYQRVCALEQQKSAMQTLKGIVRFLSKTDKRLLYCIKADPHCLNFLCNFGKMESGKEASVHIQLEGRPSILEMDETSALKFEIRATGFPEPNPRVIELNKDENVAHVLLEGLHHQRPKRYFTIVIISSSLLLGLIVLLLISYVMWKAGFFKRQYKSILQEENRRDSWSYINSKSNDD
# T1 sequence (P05556 21-798): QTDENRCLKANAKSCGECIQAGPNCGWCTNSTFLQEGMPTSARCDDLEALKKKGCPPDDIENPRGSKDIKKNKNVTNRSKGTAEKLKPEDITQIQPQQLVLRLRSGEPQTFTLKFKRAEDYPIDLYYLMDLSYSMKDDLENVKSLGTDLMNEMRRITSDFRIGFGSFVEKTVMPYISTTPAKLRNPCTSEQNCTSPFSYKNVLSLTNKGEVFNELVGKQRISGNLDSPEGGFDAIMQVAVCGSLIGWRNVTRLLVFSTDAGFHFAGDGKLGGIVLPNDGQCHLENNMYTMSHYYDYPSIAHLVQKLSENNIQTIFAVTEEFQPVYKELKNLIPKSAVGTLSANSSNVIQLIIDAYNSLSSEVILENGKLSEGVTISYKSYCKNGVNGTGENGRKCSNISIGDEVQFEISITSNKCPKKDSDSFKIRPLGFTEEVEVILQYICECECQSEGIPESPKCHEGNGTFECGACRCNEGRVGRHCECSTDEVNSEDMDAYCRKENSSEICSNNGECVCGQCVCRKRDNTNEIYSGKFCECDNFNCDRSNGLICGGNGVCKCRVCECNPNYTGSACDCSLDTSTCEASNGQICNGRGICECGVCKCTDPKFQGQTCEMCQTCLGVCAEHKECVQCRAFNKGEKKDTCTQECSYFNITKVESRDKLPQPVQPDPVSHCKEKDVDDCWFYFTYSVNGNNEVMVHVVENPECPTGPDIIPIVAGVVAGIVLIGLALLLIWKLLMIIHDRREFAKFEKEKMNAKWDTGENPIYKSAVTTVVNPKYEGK
SMILES,LAD Raw Fluorescence Units against LFA-1; Dose 3 µM; Ratio of raw counts Compound/THI0349 (αLβ2/ICAM-1),Group against VCAM (α4β1/VCAM-1)
"COc1ccc(CN(Cc2ccc(OC)cc2)c2nc(COCCOCCOCc3csc(N(Cc4ccc(OC)cc4)Cc4ccc(OC)cc4)n3)cs2)cc1 [Compound 35, 4,4′-(2,2′-oxybis(ethane-2,1-diyl)bis(oxy))bis(methylene)bis(N,N-bis(4-methoxybenzyl)thiazol-2-amine)]",0.98,II (Group II is more than twice that of THI0349 but less than five times THI0349's EC50)
"COc1cccc(CN(Cc2cccc(OC)c2)c2nc(COCCOc3cccc(N(C)C)c3)cs2)c1 [Compound 48, 4-((2-(3-(dimethylamino)phenoxy)ethoxy)methyl)-N,N-bis(3-methoxybenzyl)thiazol-2-amine]",0.43,I (Group I maintains at least the same potency or better up to more than twice that of the EC50 of THI0349 ran on the same plate)
"COc1cccc(COCc2csc(N(C)Cc3cccc(OC)c3)n2)c1 [Compound 112, N-(3-methoxybenzyl)-4-((3-methoxybenzyloxy)methyl)-N-methylthiazol-2-amine]",0.04,III (Group III more than five times the EC50 of THI0349)
"COc1cccc(CN(Cc2cccc(OC)c2)c2nc(COCCOCCOc3ccc(N(C)C)cc3)cs2)c1 [Compound 46, 4-((2-(2-(4-(dimethylamino)phenoxy)ethoxy)ethoxy)methyl)-N,N-bis(3-methoxybenzyl)thiazol-2-amine]",1.5,I (Group I maintains at least the same potency or better up to more than twice that of the EC50 of THI0349 ran on the same plate)
"COc1cccc(CN(Cc2cccc(OC)c2)c2nc(COCCN3CCOCC3)co2)c1 [Compound 87, N,N-bis(3-methoxybenzyl)-4-((2-morpholinoethoxy)methyl)oxazol-2-amine]",0.2,I (Group I maintains at least the same potency or better up to more than twice that of the EC50 of THI0349 ran on the same plate)
"COc1cccc(CN(Cc2ccc3ncccc3c2)c2nc(CN3CCOCC3)cs2)c1 [Compound 76, N-(3-methoxybenzyl)-4-(morpholinomethyl)-N-(quinolin-6-ylmethyl)thiazol-2-amine]",0.31,II (Group II is more than twice that of THI0349 but less than five times THI0349's EC50)
"COc1cccc(CN(Cc2cccc(N(C)C)c2)c2nc(CN3CCOCC3)cs2)c1 [Compound 73, N-(3-(dimethylamino)benzyl)-N-(3-methoxybenzyl)-4-(morpholinomethyl)thiazol-2-amine]",0.12,II (Group II is more than twice that of THI0349 but less than five times THI0349's EC50)
"COc1ccc(CCCNC(=O)c2cnc(N(Cc3cccc(OC)c3)Cc3cccc(OC)c3)o2)cc1 [Compound 22, 2-(bis(3-methoxybenzyl)amino)-N-(3-(4-methoxyphenyl)propyl)oxazole-5-carboxamide]",0.69,I (Group I maintains at least the same potency or better up to more than twice that of the EC50 of THI0349 ran on the same plate)
"COc1cccc(CN(Cc2cccc(N3CCOCC3)c2)c2nc(CN3CCOCC3)cs2)c1 [Compound 78, N-(3-methoxybenzyl)-N-(3-morpholinobenzyl)-4-(morpholinomethyl)thiazol-2-amine]",0.4,II (Group II is more than twice that of THI0349 but less than five times THI0349's EC50)
"COc1cccc(CN(Cc2cccc(OC)c2)c2nc(COCCN3CCN(C)CC3)cs2)c1 [Compound 66, N,N-bis(3-methoxybenzyl)-4-((2-(4-methylpiperazin-1-yl)ethoxy)methyl)thiazol-2-amine]",0.27,II (Group II is more than twice that of THI0349 but less than five times THI0349's EC50)
"COc1ccc(CCCNC(=O)c2coc(N(Cc3cccc(OC)c3)Cc3cccc(OC)c3)n2)cc1 [Compound 20, 2-(bis(3-methoxybenzyl)amino)-N-(3-(4-methoxyphenyl)propyl)oxazole-4-carboxamide]",0.19,II (Group II is more than twice that of THI0349 but less than five times THI0349's EC50)
"COc1cccc(CN(Cc2cccc(OC)c2)c2nc(COCCOCCN3CCCCC3)cs2)c1 [Compound 62, N,N-bis(3-methoxybenzyl)-4-((2-(2-(piperidin-1-yl)ethoxy)ethoxy)methyl)thiazol-2-amine]",0.37,I (Group I maintains at least the same potency or better up to more than twice that of the EC50 of THI0349 ran on the same plate)
"COc1cccc(CN(Cc2cccc(OC)c2)c2nc(COCCOCCOc3ccc(Cl)cc3)cs2)c1 [Compound 44, 4-((2-(2-(4-chlorophenoxy)ethoxy)ethoxy)methyl)-N,N-bis(3-methoxybenzyl)thiazol-2-amine]",0.77,I (Group I maintains at least the same potency or better up to more than twice that of the EC50 of THI0349 ran on the same plate)

# Second part, led by results:
LAD Raw Fluorescence Units against LFA-1; Dose 3 µM; Ratio of raw counts Compound/THI0349 (αLβ2/ICAM-1),SMILES,Group against VCAM (α4β1/VCAM-1)
1.06,"COc1cccc(CN(Cc2cccc(OC)c2)c2nc(COCCOCCOCc3ccccc3)cs2)c1 [Compound 53, 4-((2-(2-(benzyloxy)ethoxy)ethoxy)methyl)-N,N-bis(3-methoxybenzyl)thiazol-2-amine]",I (Group I maintains at least the same potency or better up to more than twice that of the EC50 of THI0349 ran on the same plate)
1.2,"COCCOc1cccc(CN(Cc2cccc(OCCOC)c2)c2nc(C)cs2)c1 [Compound 30, N,N-bis(3-(2-methoxyethoxy)benzyl)-4-methylthiazol-2-amine]",III (Group III more than five times the EC50 of THI0349)
0.31,"COc1cccc(CN(Cc2cccc(OC)c2)c2nc(COCCO)cs2)c1 [Compound 33, 2-((2-(bis(3-methoxybenzyl)amino)thiazol-4-yl)methoxy)ethanol]",III (Group III more than five times the EC50 of THI0349)
0.33,"COc1cccc(CN(Cc2cccc(OC)c2)c2nc(CN3CCN(C)CC3)cs2)c1 [Compound 69, N,N-bis(3-methoxybenzyl)-4-((4-methylpiperazin-1-yl)methyl)thiazol-2-amine]",II (Group II is more than twice that of THI0349 but less than five times THI0349's EC50)
0.4,"COc1ccc(CCOCc2csc(N(Cc3cccc(OC)c3)Cc3cccc(OC)c3)n2)cc1 [Compound 40, N,N-bis(3-methoxybenzyl)-4-((4-methoxyphenethoxy)methyl)thiazol-2-amine]",III (Group III more than five times the EC50 of THI0349)
0.12,"COc1ccc(CCNC(=O)c2coc(N(Cc3cccc(OC)c3)Cc3cccc(OC)c3)n2)cc1 [Compound 19, 2-(bis(3-methoxybenzyl)amino)-N-(4-methoxyphenethyl)oxazole-4-carboxamide]",II (Group II is more than twice that of THI0349 but less than five times THI0349's EC50)
0.3,"COCCOc1cccc(CN(Cc2cccc(OC)c2)c2nc(CN3CCOCC3)cs2)c1 [Compound 74, N-(3-methoxybenzyl)-N-(3-(2-methoxyethoxy)benzyl)-4-(morpholinomethyl)thiazol-2-amine]",I (Group I maintains at least the same potency or better up to more than twice that of the EC50 of THI0349 ran on the same plate)
0.34,"COc1cccc(CN(Cc2ccc3[nH]ncc3c2)c2nc(CN3CCOCC3)cs2)c1 [Compound 77, N-((1H-indazol-5-yl)methyl)-N-(3-methoxybenzyl)-4-(morpholinomethyl)thiazol-2-amine]",II (Group II is more than twice that of THI0349 but less than five times THI0349's EC50)
1.0,"COc1cccc(CN(Cc2cccc(OC)c2)c2nc(COCCOCc3ccccc3Cl)cs2)c1 [Compound 59, 4-((2-((2-chlorobenzyl)oxy)ethoxy)methyl)-N,N-bis(3-methoxybenzyl)thiazol-2-amine]",II (Group II is more than twice that of THI0349 but less than five times THI0349's EC50)
0.5,"COc1cccc(CN(Cc2cccc(OC)c2)c2nc(COCCOCCN3CCN(C)CC3)cs2)c1 [Compound 63, N,N-bis(3-methoxybenzyl)-4-((2-(2-(4-methylpiperazin-1-yl)ethoxy)ethoxy)methyl)thiazol-2-amine]",III (Group III more than five times the EC50 of THI0349)

# From patent US20240360113A1, “AMINOARYL-INTEGRIN AGONISTS COMPOUNDS” (Texas Heart Institute, priority 2021, published 2024)
